Structures can show the parent of a compound that is named as a salt. Where two headings read alike, the source gives them in different places.
Key:
Assay in all cases: Inhibitory activity on other cancer cell lines (similar method)
Format in all cases: cell-based
[1] = system: NCI-H1650; settings: Homo sapiens
Procedure: (§1) On the day of the test, the cells were digested with 0.25% trypsin (Gibco, 25200-072), filtered with a sieve with a pore size of 40 µm, diluted with the corresponding medium until a cell density reached 1 × 10^4 cells/mL, and inoculated onto a 96-well white cell culture plate (Beyotime, FCP968), 100 µL of cells were added per well, the culture plate was put in a 37°C incubator (Thermo 311) containing 5% CO2, and the cells were further incubated for 24 hours. On Day 2, to-be-tested samples were prepared into a stock solution at a final concentration of […] with DMSO (Sigma, D1650), then diluted with the corresponding medium until a final concentration reached 200 nM, and then subjected to four-fold serial dilutions, to prepare solutions at a total of 9 concentrations. 100 µL of the diluted sample was added to a 96-well plate, the plate was put in a 37°C incubator containing 5% CO2, and the cells were further incubated for 144 hours. The cell culture plate was removed, 100 µL of cell viability assay agent (CellTiter-Glo® Luminescent Cell Viability Assay, Promega, G7571) was added to each well, and the reaction solution allowed to react in the dark for 5 minutes at room temperature. Luminescence values were read by a microplate reader (TECAN SPARK) and data were processed with Graphpad Prism 7 software.
(§2) Table 2: Inhibitory IC50 Values of Compounds PE-21EK and PE-AM4 in the Present Invention Against Other Cancer Cell Lines

[2] = system: HS578T; settings: Homo sapiens, Hs-578T, read-out: Inhibitory IC50 values
Procedure: as §1, §2

[3] = system: DU145; settings: Homo sapiens
Procedure: as §1, §2

[4] = system: MDAMB231; settings: Homo sapiens
Procedure: as §1, §2

[5] = system: H1975; settings: Homo sapiens
Procedure: as §1, §2

[6] = system: MDA-MB-453; settings: Homo sapiens
Procedure: as §1, §2

[7] = system: A549; settings: Homo sapiens
Procedure: as §1, §2

[8] = system: 22Rv1; settings: Homo sapiens
Procedure: as §1, §2

[9] = system: IGROV-1; settings: Homo sapiens
Procedure: as §1, §2

[10] = system: Renal cancer; settings: read-out: Inhibitory IC50 values
Procedure: as §1, §2

[11] = system: MIA PaCa-2; settings: Homo sapiens
Procedure: as §1, §2

[12] = system: NSCLC; settings: read-out: Inhibitory IC50 values
Procedure: as §1, §2

[13] = system: Lncap cell; settings: Homo sapiens, read-out: Inhibitory IC50 values
Procedure: as §1, §2

[14] = system: HCC1937; settings: Homo sapiens
Procedure: as §1, §2

[15] = system: SW620; settings: Homo sapiens
Procedure: as §1, §2

[16] = NCI-H1650, cell source NSCLC, unit inferred, read-out: Inhibitory IC50 values
[17] = HS578T, cell source Breast cancer, unit inferred
[18] = DU-145, DU145, cell source Prostate cancer, unit inferred, read-out: Inhibitory IC50 values
[19] = MDA-MB-231, MDAMB231, cell source Breast cancer, unit inferred, read-out: Inhibitory IC50 values
[20] = NCI-H1975, H1975, cell source NSCLC, unit inferred, read-out: Inhibitory IC50 values
[21] = MDA-MB-453, cell source Breast cancer, unit inferred, read-out: Inhibitory IC50 values
[22] = A549, cell source NSCLC, unit inferred, read-out: Inhibitory IC50 values
[23] = 22Rv1, cell source Prostate cancer, unit inferred, read-out: Inhibitory IC50 values
[24] = IGROV-1, cell source Ovarian cancer, unit inferred, read-out: Inhibitory IC50 values
[25] = MIA PaCa-2, cell source Pancreatic cancer, unit inferred, read-out: Inhibitory IC50 values
[26] = Lncap cell, cell source Prostate cancer, unit inferred
[27] = HCC1937, cell source Breast cancer, unit inferred, read-out: Inhibitory IC50 values
[28] = SW-620, SW620, cell source Colon cancer, unit inferred, read-out: Inhibitory IC50 values

Row | SMILES | IC50 [1, 16] | IC50 [2, 17] | IC50 [3, 18] | IC50 [4, 19] | IC50 [5, 20] | IC50 [6, 21] | IC50 [7, 22] | IC50 [8, 23] | IC50 [9, 24] | IC50 [10] | IC50 [11, 25] | IC50 [12] | IC50 [13, 26] | IC50 [14, 27] | IC50 [15, 28] | other results
1 | C=C1C[C@@H]2CC[C@@]34C[C@H]5O[C@H]6[C@@H](O3)[C@H]3O[C@H](CC[C@@H]3O[C@H]6[C@H]5O4)CC(=O)C[C@@H]3[C@@H](OC)[C@@H](CC(=O)N4CC(CO)C4)O[C@H]3C[C@H]3O[C@@H](CC[C@@H]1O2)C[C@@H](C)C3=C [PE-AM4] | 1.56 nM | 0.276 nM | 0.686 nM | 1.08 nM | 0.728 nM | 0.151 nM | 4.92 nM | 0.741 nM | 0.623 nM | 3.47 nM | 1.23 nM | 3.13 nM | 0.457 nM | 0.647 nM | 1.3 nM | –
2 | C=C1C[C@@H]2CC[C@@]34C[C@H]5O[C@H]6[C@@H](O3)[C@H]3O[C@H](CC[C@@H]3O[C@H]6[C@H]5O4)CC(=O)C[C@@H]3[C@@H](OC)[C@@H](C[C@H](O)CN)O[C@H]3C[C@H]3O[C@@H](CC[C@@H]1O2)C[C@@H](C)C3=C [PE-E, eribulin mesylate, reference compound] | – | – | – | – | – | – | – | – | – | 0.755 nM | – | 0.649 nM | – | – | – | IC50 ([1]; NCI-H1650, read-out: Inhibitory IC50 values): 2.35 nM; IC50 [2]: 0.188 nM; IC50 ([3]; DU-145, read-out: Inhibitory IC50 values): 1.68 nM; IC50 ([4]; MDA-MB-231, read-out: Inhibitory IC50 values): 0.805 nM; IC50 ([5]; NCI-H1975, read-out: Inhibitory IC50 values): 0.505 nM; IC50 ([6]; MDA-MB-453, read-out: Inhibitory IC50 values): 19.3 nM; IC50 ([7]; A549, read-out: Inhibitory IC50 values): 4.17 nM; IC50 ([8]; 22Rv1, read-out: Inhibitory IC50 values): 0.618 nM; IC50 ([9]; IGROV-1, read-out: Inhibitory IC50 values): 0.439 nM; IC50 ([11]; MIA PaCa-2, read-out: Inhibitory IC50 values): 0.668 nM; IC50 ([13]; LNCaP): 1.3 nM; IC50 ([14]; HCC1937, read-out: Inhibitory IC50 values): 2.85 nM; IC50 ([15]; SW-620, read-out: Inhibitory IC50 values): 0.419 nM
3 | C=C1C[C@@H]2CC[C@@]34C[C@H]5O[C@H]6[C@@H](O3)[C@H]3O[C@H](CC[C@@H]3O[C@H]6[C@H]5O4)CC(=O)C[C@@H]3[C@@H](OC)[C@@H](CC(=O)CNC(=O)OCCCCCO)O[C@H]3C[C@H]3O[C@@H](CC[C@@H]1O2)C[C@@H](C)C3=C [PE-21EK] | 0.262 nM | 0.0207 nM | 0.501 nM | 0.218 nM | 0.0708 nM | 0.0846 nM | 0.194 nM | 0.125 nM | 0.289 nM | 0.102 nM | 0.158 nM | 0.184 nM | 0.123 nM | 0.104 nM | 0.0221 nM | –
